Consider one substance from patent publication US20170368119A1, “METHODS AND COMPOSITIONS FOR TREATING C-MET ASSOCIATED CANCERS” (YEASTERN BIOTECH CO., LTD, priority 2014, published 2017).

Series [1] relates to HCC329. The series is described as follows: cell proliferation assay (doubling time), HCC329. In kind it is cell-based, human. As to conditions: 0.5, 1.0 and 2.0 μg/ml, dose dependent, 72 hours, untreated = 100%. The method, then:
(§1) The most motile HCC cell lines identified in Example 2, namely HCC372 and HCC329, were employed for testing the molecular and cellular effects of FIP-gts on HCC, in comparison with those of JNJ-38877605 (abbreviated hereafter as JNJ), which is an ATP-competitive inhibitor for the catalytic activity of c-Met. In the cell proliferation assay, HCC329 and HCC372 cells were untreated or treated with FIP-gts (prepared in Example 4) at 0.5, 1.0 or 2.0 μg/ml for 72 hours. Cell numbers were counted, and the relative doubling times of the respective treated groups were determined by taking the data of the untreated group as 100%. The wound healing migration assay was repeated as described in Example 2, except that HCC329 and HCC372 were additionally treated with FIP-gts and JNJ (MedKoo Biosciences, Chapel Hill, N.C., USA), respectively, for 48 hours. Relative migration was analyzed quantitatively by taking the motility of untreated cells (Con) as 1.0. The results were shown in FIGS. 3A and 3B, in which the symbols (**), (*) and (#) represent statistical significance (p<0.005 and p<0.05, respectively, n=3) between the indicated inhibitor-treated samples and untreated HCC329 or HCC372 control group.

Series [2] has as its system HCC372. The series is described as follows: cell proliferation assay (doubling time), HCC372. The series is classed as cell-based, human. As to conditions: 0.5, 1.0 and 2.0 μg/ml, dose dependent, 72 hours, untreated = 100%. The method, then: as §1
Series [3] relates to HCC372. In words: wound healing migration assay, HCC372. In kind it is cell-based, human. As to conditions: FIP-gts 2.0 μg/ml, 48 hours. The protocol: (§2) The HCC cells were cultivated on 24-well plates accompanied with a wound healing culture insert until confluence followed by serum starvation of the cells for 24 hours and the culture insert were then removed. After appropriate treatments, pictures were taken under a phase contrast microscope at indicated times. Quantitative analysis of motility of the HCC cell lines described in Example 1 was performed by directly counting the cells migrating into the blanking area at 48 hours using Image J. Software available from the NIH website. In general, motilities of the mesenchymal HCCs were higher than those of the epithelial ones.
The most motile HCC cell lines identified in Example 2, namely HCC372 and HCC329, were employed for testing the molecular and cellular effects of FIP-gts on HCC, in comparison with those of JNJ-38877605 (abbreviated hereafter as JNJ), which is an ATP-competitive inhibitor for the catalytic activity of c-Met. In the cell proliferation assay, HCC329 and HCC372 cells were untreated or treated with FIP-gts (prepared in Example 4) at 0.5, 1.0 or 2.0 μg/ml for 72 hours. Cell numbers were counted, and the relative doubling times of the respective treated groups were determined by taking the data of the untreated group as 100%. […] Relative migration was analyzed quantitatively by taking the motility of untreated cells (Con) as 1.0. […]

Series [4] has as its system HCC329. The series is described as follows: wound healing migration assay, HCC329. The series is classed as cell-based, human. The conditions noted are these: FIP-gts, 48 hours. The protocol: The HCC cells were cultivated on 24-well plates accompanied with a wound healing culture insert until confluence followed by serum starvation of the cells for 24 hours and the culture insert were then removed. After appropriate treatments, pictures were taken under a phase contrast microscope at indicated times.
Cell numbers were counted, and the relative doubling times of the respective treated groups were determined by taking the data of the untreated group as 100%. […] Relative migration was analyzed quantitatively by taking the motility of untreated cells (Con) as 1.0.

Another series has as its system HepG2. In words: wound healing migration assay, HGF-induced HepG2. The conditions noted are these: 25 nM HGF, FIP-gts 2.0 μg/ml versus JNJ 26.5 nM, 48 hours. The series is classed as cell-based, human. The method, then:
as §2
In a separate experiment, human hepatoma cell line HepG2, a non-motile HCC cell line conventionally used for observing HGF-inducible molecular and cellular effects, was employed. In this experiment, the wound healing migration assay described in Example 2 was again repeated, except that HepG2 (purchased from Bioresource Collection and Research Center (BCRC), Hsinchu, Taiwan) was treated with FIP-gts or JNJ-38877605 for 48 hours in the presence or absence of 25 nM HGF (PeproTech Inc., Rocky Hill, N.J., USA). Relative migration was quantitatively analyzed taking the motility of untreated cells (Con) as 1.0. […]

Series [5] has as its system HCC329. The series is described as follows: HCC329 tumor development and metastasis in SCID mice model. The series is classed as in vivo. As to conditions: FIP-gts 4.0-20 μg/g mouse, intraperitoneal twice a week, 2 months. The method, then: HCC329 cells (approximately 2×10^7) suspended in 100 μl Dulbecco's Modified Eagle Medium (DMEM; Gibco, Grand Island, N.Y., USA) were directly injected into the subserosa of the middle liver lobe of the SCID mice, followed by intraperitoneal administration twice a week with DMEM as a vehicle, vehicle-containing FIP-gts (4.0-20 μg/g mouse) or JNJ (0.5-2.0 nmole/g mouse).
The mice were sacrificed 2 months after injection. Tumor mass was measured and the occurrence of intrahepatic metastasis and/or extrahepatic metastasis was recorded. Nodules with diameter of more than 0.1-0.2 cm observed on the left or right lobes were recognized as secondary tumor foci. […] Extra-hepatic metastasis was defined to be the case where the tumors appearing in organs other than liver such as in intestine. During the animal experiment, the regulations relevant to the care and use of laboratory animals were followed. This was approved by the Institutional Animal Care and Use Committee (IACUC) in Tzu Chi University (No. of consent form: 102080).

A short description of series [6]: toxicity test on normal SCID mice. The conditions noted are these: 20 μg/g mouse intraperitoneal, 2-3 month, data not shown. In kind it is in vivo. The method, then:
In comparison, the effect of c-Met inhibitor JNJ on tumor progression of HCC329 was not prominent (FIG. 4). The toxicity test of FIP-gts on SCID mice was also performed by treating 4 normal SCID mice without inoculation of HCC329.

The subject of series [7] is p-JNK, p-ERK, p-AKT, p-EGFR in HCC329. In words: immuno-blotting of signaling molecules, HCC329. In kind it is cell-based, human. The text has this: To investigate the molecular mechanism of FIP-gts in suppression of tumor progression of HCCs, the effects of FIP-gts on the activity and/or quantity of the critical members present in c-Met dependent signaling pathway, including c-Met, phosphorylated c-Met (p-c-Met) and downstream effectors p-JNK and p-ERK, were examined in HCCs. […] Total proteins were harvested from the cells and subjected to immuno-blotting analysis using GAPDH as a loading control. Antibodies for p-c-Met, p-JNK, p-ERK and p-paxillin (S178), GAPDH and ERK were purchased from Santa Cruz Biotechnology (California, USA). The band intensities on the blots were quantified with Image J. Software. Relative band intensity of each molecule was calculated, taking the data of untreated HCC372 or HCC329 as 1.0.

Series [8] concerns c-Met, p-c-Met, p-JNK, p-ERK, p-AKT in HCC372. In words: immuno-blotting of c-Met dependent signaling, HCC372. The conditions noted are these: 2.0 μg/ml. The series is classed as cell-based, human. The method, then:
To investigate the molecular mechanism of FIP-gts in suppression of tumor progression of HCCs, the effects of FIP-gts on the activity and/or quantity of the critical members present in c-Met dependent signaling pathway, including c-Met, phosphorylated c-Met (p-c-Met) and downstream effectors p-JNK and p-ERK, were examined in HCCs. HCC329 and HCC372 cells were treated with FIP-gts (2 μg/ml) for 4 or 24 hours. Total proteins were harvested from the cells and subjected to immuno-blotting analysis using GAPDH as a loading control. Antibodies for p-c-Met, p-JNK, p-ERK and p-paxillin (S178), GAPDH and ERK were purchased from Santa Cruz Biotechnology (California, USA). The band intensities on the blots were quantified with Image J. Software. Relative band intensity of each molecule was calculated, taking the data of untreated HCC372 or HCC329 as 1.0. The results were shown in FIGS. 5A and 5B, in which (**) (##) and (*) (#) represent statistical significance (p<0.005 and p<0.05, respectively, n=3) between the indicated inhibitor-treated sample and untreated HCC329 or HCC372 control group.

Series [9] deals with HGF-induced c-Met signaling in HepG2. In words: immuno-blotting of HGF-induced c-Met signaling, HepG2. The series is classed as cell-based, human. The conditions noted are these: 2.0 μg/ml, 0.5 hour, HGF 25 nM. The protocol:
HepG2 cells were treated with FIP-gts (2.0 μg/ml) for 0.5 hour in the presence or absence of HGF (25 nM). Total proteins were harvested from the cells and immuno-blotting analysis was performed as described in Example 6, except using ERK as the loading control. The results were shown in FIGS. 5C and 5D, in which (**) represent statistical significance (p<0.005, n=3) between the indicated HGF/FIP-gts co-treated sample and the HGF alone group.

In the case of “FIP-gts: fungal immunomodulatory protein of SEQ ID NO: 1 (Ganoderma tsugae), recombinantly expressed in Saccharomyces cerevisiae”, in the series on HCC329 [1], the “increase of doubling time” value is recorded as 25-46%. Moreover, the “increase of doubling time” value with HCC372 [2] was 14-47%. The “suppression of cell migration” value in the series with HCC372 [3] amounted to 95%. For the same substance, the “suppression of cell migration” value in the series on HCC329 [4] is given as 80%. In the series with HepG2, the “prevention of HGF-induced cell migration” value is recorded as “much more effectively than JNJ”. In the series on HCC329 [5], the “secondary tumors on liver lobes (intra-hepatic metastasis)” value is “normal liver lobule structure”; the “tumor progression (primary tumor growth and intra-metastasis) of HCC329” value was “dramatically suppressed tumor progression”. Besides, in [6], the “adverse effects (activity of animals, integrity of organs)” value is reported as “no adverse effects was observed”. In series [7] (2.0 μg/ml, 24 hours), the “decrease of phosphorylation of AKT” value was found to be 18%, the “decrease of phosphorylation of ERK” value came to 51% and the “decrease of phosphorylation of JNK” value stood at 85%. For the same substance, the “phosphorylated EGFR (p-EGFR) level” value in series [7] (16 hours, versus untreated, data not shown) is “remarkably reduced”. Further, in [8], the “effect on p-JNK” value is given as “didn't decrease p-JNK at all”. Also, in series [8] (4th hour), the “suppression of expression of Met protein” value is listed as 90-95%, the “suppression of phosphorylation of AKT” value is 80-95%, the “suppression of phosphorylation of ERK” value is listed as 80-95% and the “suppression of phosphorylation of Met (at Tyr1234)” value was found to be 55%. Further, in series [9], the “suppression of HGF-induced p-ERK” value is given as 85-90%, the “suppression of HGF-induced p-JNK” value is 85-90%, the “suppression of HGF-induced p-c-Met” value is 85-90% and the “suppression of HGF-induced phosphorylated paxillin (at Ser 178)” value is 85-90%.
